The text below walks through data of patent publication US10323026B2, “Heterocyclic compound” (Takeda Pharmaceutical Company Limited, priority 2016, dated 2019).

Molecules are shown by their SMILES.

The first experiment concerns the target T1, His-hMAGL (recombinant polyhistidine tagged human MAGL protein) (Homo sapiens, UniProt Q99685).
T1 construct: polyhistidine (His) (N); made in house; host or cells: E. coli BL21(DE3)
T1 sequence (Q99685 1-303): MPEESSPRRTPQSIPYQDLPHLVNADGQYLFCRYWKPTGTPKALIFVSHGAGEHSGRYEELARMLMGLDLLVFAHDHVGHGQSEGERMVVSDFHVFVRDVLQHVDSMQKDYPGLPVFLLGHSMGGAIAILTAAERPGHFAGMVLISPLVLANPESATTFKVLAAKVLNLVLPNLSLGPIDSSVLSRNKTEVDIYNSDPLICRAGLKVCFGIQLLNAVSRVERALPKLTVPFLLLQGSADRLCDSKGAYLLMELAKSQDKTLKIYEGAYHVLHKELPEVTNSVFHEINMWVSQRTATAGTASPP
The experiment in a line: Measurement of MAGL inhibitory activity (RapidFire-mass spectrometry of arachidonic acid produced from 2-arachidonylglycerol). The experiment is classed as biochemical. The conditions noted are these: test compound 10 μM; His-hMAGL; substrate 2-arachidonylglycerol; 60 min preincubation. The procedure: Furthermore, acetonitrile (50 μL) containing 3 μM arachidonic acid-d8 (Cayman Chemical Company) was added and the mixture was stirred.
The amount of arachidonic acid in the obtained enzyme reaction mixture was calculated by measuring by RapidFire-mass spectrometry and correcting by the amount of arachidonic acid-d8. High Throughput online solid phase extraction was performed using RapidFire 300™ system (Agilent Technologies, Inc.). Samples were loaded on SPE C4 cartridge (Agilent Technologies, Inc.) and desalted with 0.2 (v/v) % acetic acid (Wako Pure Chemical Industries, Ltd.) in ultrapure water/acetonitrile (70/30, v/v) at a flow rate of 1.5 mL/min, eluted at a flow rate of 0.5 mL/min with 0.2(v/v) % acetic acid dissolved in acetonitrile/ultrapure water (90/10, v/v), and injected into the mass spectrometry part. The injection needle was washed with ultrapure water (500 millisecond) and acetonitrile (500 millisecond) to minimize carry-over. […] The RapidFire300 system was controlled by RapidFire UI software version 3.6 (Agilent Technologies, Inc.).
The mass spectrometry of the resultant product was performed using API4000™ triple quadrupole mass spectrometer (AB SCIEX) equipped with an electrospray ion source (TurboIon Spray™) in a negative selected reaction monitoring (SRM) mode. The conditions of SRM are shown below. The parameters of the instrument were optimized as follows: capillary temperature 600° C., ion spray voltage −4.5 kV, collision gas 8, curtain gas 15 psi, ion source gas 1 60 psi, ion source gas 2 60 psi. The mass spectrometer was controlled by Analyst™ software version 1.5.1 (AB SCIEX). The peak area integration was analyzed using RapidFire integrator software version 3.6 (Agilent Technologies, Inc.).
MAGL inhibitory rate (%) was calculated according to the following calculation formula. (1-(arachidonic acid production amount of test compound addition group−arachidonic acid production amount of enzyme-free group)÷(arachidonic acid production amount of test compound-free group−arachidonic acid production amount of enzyme-free group))×100
For the compound `CC(Oc1ccc(C(F)(F)F)cc1F)C1CN(C(=O)[C@H]2C[C@]3(COC(=O)N3)C2)C1` (stereo partly shown) [Example 13, (2s,4s)-2-((3-(1-(2-fluoro-4-(trifluoromethyl)phenoxy)ethyl)azetidin-1-yl)carbonyl)-7-oxa-5-azaspiro[3.4]octan-6-one], the “% inhibition (10 μM)” value is 100%.
Regarding `Cc1ccc(OC(C)C2CCN(C(=O)[C@H]3C[C@]4(COC(=O)N4)C3)CC2)c(F)c1` (stereo partly shown) [Example 45, (2s,4s)-2-((4-(1-(2-fluoro-4-methylphenoxy)ethyl)piperidin-1-yl)carbonyl)-7-oxa-5-azaspiro[3.4]octan-6-one], the “% inhibition (10 μM)” value amounted to 100%.

The same experiment, now with this note: test compound 10 μM; His-hMAGL; substrate 2-arachidonylglycerol; 60 min preincubation; 10 µM.
Take `CC1(C2CCN(C(=O)[C@H]3C[C@]4(COC(=O)N4)C3)CC2)Cc2ccc(C(F)(F)F)cc2O1` (stereo partly shown) [Example 70, (2s,4s)-2-((4-(2-methyl-6-(trifluoromethyl)-2,3-dihydro-1-benzofuran-2-yl)piperidin-1-yl)carbonyl)-7-oxa-5-azaspiro[3.4]octan-6-one]: the “% inhibition (10 μM)” value came out at 101%.
Consider `CC(Oc1ccc(F)cc1F)C1CCN(C(=O)[C@H]2C[C@]3(COC(=O)N3)C2)CC1` (stereo partly shown) [Example 21, (2s,4s)-2-((4-(1-(2,4-difluorophenoxy)ethyl)piperidin-1-yl)carbonyl)-7-oxa-5-azaspiro[3.4]octan-6-one], for which the “% inhibition (10 μM)” value was 100%.
On the same count and under the same terms, with `CC(Oc1cc(F)c(F)cc1F)C1CCN(C(=O)[C@H]2C[C@]3(COC(=O)N3)C2)CC1` (stereo partly shown) [Example 54, (2s,4s)-2-((4-(1-(2,4,5-trifluorophenoxy)ethyl)piperidin-1-yl)carbonyl)-7-oxa-5-azaspiro[3.4]octan-6-one] the figure was 101%; with `CC(Oc1ccc(F)cc1F)C1CCN(C(=O)[C@H]2C[C@]3(COC(=O)N3)C2)CC1` (stereo partly shown) [Example 22, (2s,4s)-2-((4-(1-(2,4-difluorophenoxy)ethyl)piperidin-1-yl)carbonyl)-7-oxa-5-azaspiro[3.4]octan-6-one], 101%.
As to `CC(Oc1ccc(F)c(F)c1F)C1CCN(C(=O)[C@H]2C[C@]3(COC(=O)N3)C2)CC1` (stereo partly shown) [Example 82, (2s,4s)-2-((4-(1-(2,3,4-trifluorophenoxy)ethyl)piperidin-1-yl)carbonyl)-7-oxa-5-azaspiro[3.4]octan-6-one], the “% inhibition (10 μM)” value is listed as 100%.

Staying with this experiment, now noted: test compound 10 μM; His-hMAGL; substrate 2-arachidonylglycerol; 60 min preincubation; read-out: % inhibition (10 μM).
As usually defined, the inhibition is the relative decrease from the control value, in per cent. Regarding `O=C1N[C@]2(CO1)C[C@H](C(=O)N1CC(OCc3cc(C(F)(F)F)cc(C(F)(F)F)c3)C1)C2` [Example 113, (2s,4s)-2-((3-((3,5-bis(trifluoromethyl)benzyl)oxy)azetidin-1-yl)carbonyl)-7-oxa-5-azaspiro[3.4]octan-6-one], the inhibition at 10 µM turned out to be 100%.
Turning to `O=C1N[C@]2(CO1)C[C@H](C(=O)N1CCC(COc3ccc(F)cc3Cl)(C(F)(F)F)CC1)C2` [Example 48, (2s,4s)-2-((4-((2-chloro-4-fluorophenoxy)methyl)-4-(trifluoromethyl)piperidin-1-yl)carbonyl)-7-oxa-5-azaspiro[3.4]octan-6-one], the inhibition at 10 µM came to 100%.
As for `O=C1N[C@]2(CO1)C[C@H](C(=O)N1CCC(C(F)(F)c3ccc(Cl)cc3Cl)CC1)C2` [Example 8, (2s,4s)-2-((4-((2,4-dichlorophenyl)(difluoro)methyl)piperidin-1-yl)carbonyl)-7-oxa-5-azaspiro[3.4]octan-6-one], the inhibition at 10 µM is 100%.
In the case of `Cc1cc(Cl)ccc1COC1CN(C(=O)[C@H]2C[C@]3(COC(=O)N3)C2)C1` [Example 92, (2s,4s)-2-((3-((4-chloro-2-methylbenzyl)oxy)azetidin-1-yl)carbonyl)-7-oxa-5-azaspiro[3.4]octan-6-one], the inhibition at 10 µM came to 100%.
Same read-out and setting: the figure for `Cc1cc(OCC2CN(C(=O)[C@H]3C[C@]4(COC(=O)N4)C3)C2)c(F)cc1C(F)(F)F` [Example 72, (2s,4s)-2-((3-((2-fluoro-5-methyl-4-(trifluoromethyl)phenoxy)methyl)azetidin-1-yl)carbonyl)-7-oxa-5-azaspiro[3.4]octan-6-one] is 101%; for `Cc1cc(F)ccc1OC(C)C1CCN(C(=O)[C@H]2C[C@]3(COC(=O)N3)C2)CC1` (stereo partly shown) [Example 20, (2s,4s)-2-((4-(1-(4-fluoro-2-methylphenoxy)ethyl)piperidin-1-yl)carbonyl)-7-oxa-5-azaspiro[3.4]octan-6-one] it is 100%; for `Cc1ccc(OCC2CCN(C(=O)[C@H]3C[C@]4(COC(=O)N4)C3)CC2)c(F)c1` [Example 23, (2s,4s)-2-((4-((2-fluoro-4-methylphenoxy)methyl)piperidin-1-yl)carbonyl)-7-oxa-5-azaspiro[3.4]octan-6-one] it is 100%.
On the same count and under the same terms, with `CC(Oc1ccc(Cl)cc1F)C1CCN(C(=O)[C@H]2C[C@]3(COC(=O)N3)C2)CC1` (stereo partly shown) [Example 18, (2s,4s)-2-((4-(1-(4-chloro-2-fluorophenoxy)ethyl)piperidin-1-yl)carbonyl)-7-oxa-5-azaspiro[3.4]octan-6-one] the figure was 101%; with `CC(Oc1ccc(C(F)(F)F)cc1F)C1CN(C(=O)[C@H]2C[C@]3(COC(=O)N3)C2)C1` (stereo partly shown) [Example 10, (2s,4s)-2-((3-(1-(2-fluoro-4-(trifluoromethyl)phenoxy)ethyl)azetidin-1-yl)carbonyl)-7-oxa-5-azaspiro[3.4]octan-6-one], 100%; with `O=C1N[C@]2(CO1)C[C@H](C(=O)N1CC(CC(F)(F)c3ccc(C(F)(F)F)c(F)c3)C1)C2` [Example 99, (2s,4s)-2-((3-(2,2-difluoro-2-(3-fluoro-4-(trifluoromethyl)phenyl)ethyl)azetidin-1-yl)carbonyl)-7-oxa-5-azaspiro[3.4]octan-6-one], 100%.
Consider `Cc1ccc(COC2CN(C(=O)[C@H]3C[C@@]4(COC(=O)N4)C3)C2)cc1Cl` [Example 123, (2r,4r)-2-((3-((3-chloro-4-methylbenzyl)oxy)azetidin-1-yl)carbonyl)-7-oxa-5-azaspiro[3.4]octan-6-one], for which the inhibition at 10 µM came out at 99%.
Take `O=C1N[C@]2(CO1)C[C@H](C(=O)N1CCC(C(c3ccccc3)c3ccccc3)CC1)C2` [Example 50, (2s,4s)-2-((4-(diphenylmethyl)piperidin-1-yl)carbonyl)-7-oxa-5-azaspiro[3.4]octan-6-one]: the inhibition at 10 µM came out at 101%.
For `N#Cc1ccc(OCC2CCN(C(=O)[C@H]3C[C@]4(COC(=O)N4)C3)CC2)c(Cl)c1` [Example 130, 3-chloro-4-((1-(((2s,4s)-6-oxo-7-oxa-5-azaspiro[3.4]oct-2-yl)carbonyl)piperidin-4-yl)methoxy)benzonitile], the inhibition at 10 µM came out at 100%.
Take `O=C1N[C@]2(CO1)C[C@H](C(=O)N1CC(/C=C(\F)c3ccc(C(F)(F)F)c(F)c3F)C1)C2` [Example 104, (2s,4s)-2-((3-((Z)-2-(2,3-difluoro-4-(trifluoromethyl)phenyl)-2-fluorovinyl)azetidin-1-yl)carbonyl)-7-oxa-5-azaspiro[3.4]octan-6-one]: the inhibition at 10 µM came to 100%.
Consider `Cc1ccc(OC(C)C2CCN(C(=O)[C@H]3C[C@]4(COC(=O)N4)C3)CC2)c(F)c1` (stereo partly shown) [Example 28, (2s,4s)-2-((4-(1-(2-fluoro-4-methylphenoxy)ethyl)piperidin-1-yl)carbonyl)-7-oxa-5-azaspiro[3.4]octan-6-one], for which the inhibition at 10 µM was 100%.
